# Laboratory results: US20090270371A1, “QUINOLINE DERIVATIVES USEFUL IN THE TREATMENT OF MGLUR5 RECEPTOR-MEDIATED DISORDERS” (priority 2005, published 2009)
# Biological target: T1, rat mGluR5 receptors (Rattus norvegicus, UniProt P31424)
# T1 construct: rat cerebro-cortical membrane preparation was used; from tissue; host or cells: rat cerebral cortex membranes
# Test: mGluR5 receptor binding test, rat cerebro-cortical membrane preparation, [3H]-M-MPEP
# Conditions: affinity for rat mGluR5 receptors; [3H]-M-MPEP (2 nM) radioligand
# How it was run: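 Radioligand binding used rat cerebro-cortical membranes with 2 nM [3H]-M-MPEP. Nonspecific binding was defined with 10 μM M-MPEP. The method follows a modification of a published procedure.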
# T1 sequence (P31424 21-1203): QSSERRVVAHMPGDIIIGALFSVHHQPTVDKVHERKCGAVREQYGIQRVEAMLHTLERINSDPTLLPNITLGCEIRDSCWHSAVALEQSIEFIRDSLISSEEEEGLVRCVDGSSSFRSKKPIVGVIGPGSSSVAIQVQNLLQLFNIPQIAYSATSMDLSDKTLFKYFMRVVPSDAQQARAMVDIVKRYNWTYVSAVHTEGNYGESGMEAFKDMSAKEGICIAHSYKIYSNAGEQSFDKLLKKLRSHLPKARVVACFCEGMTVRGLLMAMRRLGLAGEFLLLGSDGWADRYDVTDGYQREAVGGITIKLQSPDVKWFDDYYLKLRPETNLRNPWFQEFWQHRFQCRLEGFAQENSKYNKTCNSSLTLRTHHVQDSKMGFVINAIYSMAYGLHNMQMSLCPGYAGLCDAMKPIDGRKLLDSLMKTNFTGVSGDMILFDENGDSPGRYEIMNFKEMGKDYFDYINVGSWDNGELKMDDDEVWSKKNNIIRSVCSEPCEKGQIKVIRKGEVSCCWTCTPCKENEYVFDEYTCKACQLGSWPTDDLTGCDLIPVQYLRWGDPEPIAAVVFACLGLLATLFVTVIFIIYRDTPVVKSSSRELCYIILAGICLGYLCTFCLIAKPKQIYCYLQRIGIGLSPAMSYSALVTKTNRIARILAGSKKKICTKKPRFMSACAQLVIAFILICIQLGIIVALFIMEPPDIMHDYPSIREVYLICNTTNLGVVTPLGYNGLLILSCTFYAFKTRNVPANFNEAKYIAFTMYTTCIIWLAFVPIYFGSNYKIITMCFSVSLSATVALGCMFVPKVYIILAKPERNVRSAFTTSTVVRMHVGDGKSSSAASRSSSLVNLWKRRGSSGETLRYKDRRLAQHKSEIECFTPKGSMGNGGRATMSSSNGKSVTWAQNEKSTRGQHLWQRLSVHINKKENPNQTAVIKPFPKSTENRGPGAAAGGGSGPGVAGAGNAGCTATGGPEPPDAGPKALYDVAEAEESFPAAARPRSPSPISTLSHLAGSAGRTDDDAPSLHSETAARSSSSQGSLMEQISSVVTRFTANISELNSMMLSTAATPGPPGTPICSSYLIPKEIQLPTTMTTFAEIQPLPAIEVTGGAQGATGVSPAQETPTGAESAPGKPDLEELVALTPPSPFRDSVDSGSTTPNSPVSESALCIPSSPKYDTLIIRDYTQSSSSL
row,Ki [nM],Compound
1,> 500,O=S(=O)(c1cccc(F)c1)c1cnc2cc(Cl)ccc2c1N1CCOCC1 [Compound 325]
2,< 200,O=S(=O)(c1cccc(Cl)c1)c1cnc2cc(Cl)ccc2c1N1CCOCC1 [Compound 328]
3,> 500,O=S(=O)(c1ccc(F)c(F)c1)c1cnc2cc(Cl)ccc2c1N1CCOCC1 [Compound 331]
4,< 200,O=S(=O)(c1ccc(F)c(Cl)c1)c1cnc2cc(Cl)ccc2c1N1CCOCC1 [Compound 334]
5,200 to 500,O=S(=O)(c1cc(Cl)cc(Cl)c1)c1cnc2c(F)cccc2c1N1CCOCC1 [Compound 335]
6,200 to 500,O=S(=O)(c1cc(F)cc(F)c1)c1cnc2c(F)cccc2c1N1CCOCC1 [Compound 336]
7,> 500,O=S(=O)(c1ccc(F)cc1)c1cnc2c(F)cccc2c1N1CCOCC1 [Compound 337]
8,> 500,COc1ccc(S(=O)(=O)c2cnc3c(F)cccc3c2N2CCOCC2)cc1 [Compound 338]
9,200 to 500,O=S(=O)(c1ccc(Cl)cc1)c1cnc2c(F)cccc2c1N1CCOCC1 [Compound 339]
10,> 500,O=S(=O)(c1cccc(F)c1)c1cnc2c(F)cccc2c1N1CCOCC1 [Compound 340]
11,200 to 500,Cc1ccc(S(=O)(=O)c2cnc3c(F)cccc3c2N2CCOCC2)cc1F [Compound 341]
12,> 500,Cc1ccc(S(=O)(=O)c2cnc3c(F)cccc3c2N2CCOCC2)cc1 [Compound 342]
13,200 to 500,O=S(=O)(c1ccc(F)c(F)c1)c1cnc2c(F)cccc2c1N1CCOCC1 [Compound 343]
14,< 200,O=S(=O)(c1ccc(F)c(Cl)c1)c1cnc2c(F)cccc2c1N1CCOCC1 [Compound 344]
15,< 200,O=S(=O)(c1ccc(Cl)c(Cl)c1)c1cnc2c(F)cccc2c1N1CCOCC1 [Compound 345]

# Second part, the compound before the results:
row,Compound,Ki [nM]
1,COc1ccc(S(=O)(=O)c2cnc3cc(Cl)ccc3c2N2CCOCC2)cc1 [Compound 322],> 500
2,O=S(=O)(c1ccccc1)c1cnc2cc(Cl)ccc2c1N1CCOCC1 [Compound 323],> 500
3,O=S(=O)(c1ccc(Cl)cc1)c1cnc2cc(Cl)ccc2c1N1CCOCC1 [Compound 324],200 to 500
4,COc1cccc(S(=O)(=O)c2cnc3cc(Cl)ccc3c2N2CCOCC2)c1 [Compound 326],200 to 500
5,Cc1ccc(S(=O)(=O)c2cnc3cc(Cl)ccc3c2N2CCOCC2)cc1C [Compound 327],< 200
6,Cc1ccc(S(=O)(=O)c2cnc3cc(Cl)ccc3c2N2CCOCC2)cc1Cl [Compound 329],< 200
7,COc1ccc(S(=O)(=O)c2cnc3cc(Cl)ccc3c2N2CCOCC2)cc1Cl [Compound 330],200 to 500
8,O=S(=O)(c1ccc(Cl)c(Cl)c1)c1cnc2cc(Cl)ccc2c1N1CCOCC1 [Compound 332],< 200
9,Cc1cc(C)cc(S(=O)(=O)c2cnc3cc(Cl)ccc3c2N2CCOCC2)c1 [Compound 333],> 500
10,N#Cc1ccc2ncc(S(=O)(=O)c3ccc(F)cc3)c(N3CCOCC3)c2c1 [Compound 346],200 to 500
11,O=S(=O)(c1ccc(Cl)cc1)c1cnc2c(Cl)ccc(Cl)c2c1N1CCOCC1 [Compound 347],200 to 500
12,O=S(=O)(c1ccc(Cl)cc1)c1cnc2ccc(F)cc2c1N1CCC(F)(F)CC1 [Compound 348],200 to 500
13,CC1CCN(c2c(S(=O)(=O)c3ccc(F)c(Cl)c3)cnc3ccc(F)cc23)CC1 [Compound 349],200 to 500
14,O=S(=O)(c1ccc(F)cc1)c1cnc2cc(Cl)ccc2c1N1CCC(CO)CC1 [Compound 350],200 to 500
15,O=S(=O)(c1cc(F)cc(F)c1)c1cnc2cc(Cl)ccc2c1N1CCC(CO)CC1 [Compound 351],200 to 500
